Data reported in US6740772B1, “Prostaglandin derivatives” (Taisho Pharmaceutical Co., Ltd., priority 1999, dated 2004).

Tested on: EBTr [NBL-4] cells derived from bovine embryonic trachea
Assay: cAMP production promoting action in EBTr [NBL-4] cell derived from bovine embryonic trachea
Type: cell-based
Details: for EC50: concentration producing 50% of the cAMP amount obtained with 10 μM PGD2 (=100%), 15 minutes with test compound and 0.5 mM 3-isobutyl-1-methylxanthine; for cAMP production promoting action (in words): conclusion drawn from Table 1
Experimental: Experiment [Measurement of cAMP production promoting action in EBTr [NBL-4] cell derived from bovine embryonic trachea]
According to the method of Ito et al. in Br. J. Pharmacol., vol. 99, page 13-14 (1990), the following test was carried out.
That is, EBTr [NBL-4] cells derived from bovine embryonic trachea (produced by Dainippon Pharmaceutical Co.) were inoculated on 24-well plates (6×10^4 cells/well) (manufactured by Sumitomo Bakelite Co.), and cultured on a growth medium (MEM Earle's medium including 10% calf serum, 2mM glutamine and non-essential amino acids) for 48 hours, followed by cultivation on 0.5 ml of a growth medium including the test compound and 0.5 mM 3-isobutyl-1-methylxanthine) for 15 minutes. After the completion of the reaction, the cells were washed with a phosphate buffer (not including Ca++ and Mg++), 0.6 ml of 65% aqueous ethanol solution was added, followed by allowing to stand at 4° C. for an hour, and the resulting cAMP was extracted. After evaporation of the solvent by a centrifugal evaporator, the amount of cAMP was measured by using a cAMP EIA System (manufactured by Amersham Co.).
When an amount of cAMP obtained by adding PGD2 in a concentration of 10 μM was regarded as 100%, a concentration required to produce 50% of the amount of cAMP was measured as EC50.
(note) Compounds 19 and 97 are those prepared in the examples as described above. The test compounds were each used as a form of an ethanol solution, and compared with a vehicle-treated group as a control.

| Structure (SMILES) | EC50 | cAMP production promoting action (in words) |
| --- | --- | --- |
| O=C(O)CCCCSCC1C(Cl)CC(O)C1C#CC(O)C1CCCCC1 (stereo not drawn) [Compound 19, 6-Thia-9-deoxy-9β-chloro-16,17,18,19,20-pentanor-15-cyclohexyl-13,14-didehydro-PGF1α] | 17.3 nM | strong cAMP production promoting action |
| O=C(O)COCCSCC1C(Cl)CC(O)C1C#CC(O)C1CCCCC1 (stereo not drawn) [Compound 97, 3-Oxa-6-thia-9β-chloro-13,14-didehydro-16,17,18,19,20-pentanor-15-cyclohexyl-9-deoxy-PGF1α] | 5.13 nM | strong cAMP production promoting action |
| CCCCC[C@H](O)/C=C/[C@H]1C(=O)C[C@H](O)[C@@H]1C/C=C\CCCC(=O)O [PGD2, reference compound] | 124 nM | – |
